Reference: patent publication US3981865A, “Bis-type penicillins and process for producing the same” (Toyama Chemical Co., Ltd., priority 1974, dated 1976)
≈ marks a conversion by molar mass, not a printed value.

Columns and labels:
Escherchia coli NIHJ = assay: MIC by plate method, standard strains; format: cell-based; conditions: Heart infusion agar pH 7.4, inoculum 10^4 cells per plate (10^6 cells/ml.), unit assumed
Method: (§1) The minimum inhibitory concentration (MIC) was determined by the plate method disclosed in "Chemotherapy" (Japan), Vol. 16, (1968), pages 98 - 99. The culture medium used was a Heart infusion agar (pH 7.4). The number of the cells per plate used in the inoculum was 10^4 (10^6 cells/ml.).

Klebsiella pneumoniae = assay: MIC by plate method, standard strains; format: cell-based; conditions: Heart infusion agar pH 7.4, inoculum 10^4 cells per plate (10^6 cells/ml.), unit assumed
Method: as §1

Proteus vulgaris 3027 = assay: MIC by plate method, standard strains; format: cell-based; conditions: Heart infusion agar pH 7.4, inoculum 10^4 cells per plate (10^6 cells/ml.), unit assumed
Method: as §1

[1] = system: Pseudomonas aeruginosa I.F.O.; assay: MIC by plate method, standard strains; format: cell-based; conditions: Heart infusion agar pH 7.4, inoculum 10^4 cells per plate (10^6 cells/ml.), unit assumed
Method: as §1

[2] = system: Staphylococcus aureus 209P; assay: MIC by plate method, standard strains; format: cell-based; conditions: Heart infusion agar pH 7.4, inoculum 10^4 cells per plate (10^6 cells/ml.), unit assumed
Method: as §1

[3] = system: β-lactamase from Escherchia coli 33; assay: Resistant activity against β-lactamase, iodometric assay; format: biochemical; conditions: β-lactamase hydrolysis, relative to Potassium Penicillin G = 100
Method: (§2) 3. Resistant activity against β-lactamase, Pseudomonas aeruginosa GN 238 and Escherchia coli 33:
(§3) The resistant activity of each compound against β-lactamase was measured in the manner described below.
(§4) β-Lactamase was prepared from Pseudomonas aeruginosa GN 238 and Escherchia coli 33. This microorganism was cultured in 100 ml. of a medium containing 2 g. of yeast extract, 10 g. of polypeptone, 2 g. of glucose, 7 g. of disodium hydrogen phosphate, 2 g. of potassium dihydrogen phosphate, 1.2 g. of ammonium sulfate and 0.4 g. of magnesium sulfate, per liter, in a 500-ml. Erlenmeyer flask for 6 hrs. at 37°C with shaking. The resulting cells were collected by centrifugation (5,000 r.p.m. × 10 min.), washed three times with 0.1 M phosphate buffer (pH 7.0). Subsequently, the cells were subjected to sonication (20 KHz, 20 min.) and then centrifuged at 15,000 r.p.m. for 60 min. By using the supernatant of enzyme fluid, the resistance of each compound against β-lactamase was determined by the iodometric assay method. Each numeral shown in Table 3 is a relative activity value calculated by assuming as 100 the activity of the control Potassium Penicillin G.

[4] = system: β-lactamase from Pseudomonas aeruginosa GN 238; assay: as above; format: biochemical; conditions: β-lactamase hydrolysis, relative to Potassium Penicillin G = 100
Method: as §2, §3, §4

[5] = system: Pseudomonas aeruginosa clinical isolates; assay: MIC by plate method, clinical isolates of bacteria; format: cell-based; conditions: for MIC Pseudomonas aeruginosa GN 82: clinical isolate GN 82, Heart infusion agar pH 7.4, unit assumed; for MIC Pseudomonas aeruginosa GN 163: clinical isolate GN 163, Heart infusion agar pH 7.4, unit assumed; for MIC Pseudomonas aeruginosa GN 221: clinical isolate GN 221, Heart infusion agar pH 7.4, unit assumed; for MIC Pseudomonas aeruginosa GN 264: clinical isolate GN 264, Heart infusion agar pH 7.4, unit assumed; for MIC Pseudomonas aeruginosa GN 376: clinical isolate GN 376, Heart infusion agar pH 7.4, unit assumed; for MIC Pseudomonas aeruginosa GN 383: clinical isolate GN 383, Heart infusion agar pH 7.4, unit assumed; for MIC Pseudomonas aeruginosa GN 1035: clinical isolate GN 1035, Heart infusion agar pH 7.4, unit assumed; for MIC Pseudomonas aeruginosa GN 1091: clinical isolate GN 1091, Heart infusion agar pH 7.4, unit assumed; for MIC Pseudomonas aeruginosa GN 2565: clinical isolate GN 2565, Heart infusion agar pH 7.4, unit assumed; for MIC Pseudomonas aeruginosa GN 2987: clinical isolate GN 2987, Heart infusion agar pH 7.4, unit assumed; for MIC Pseudomonas aeruginosa S-2: clinical isolate S-2, Heart infusion agar pH 7.4, unit assumed; for MIC Pseudomonas aeruginosa S-3: clinical isolate S-3, Heart infusion agar pH 7.4, unit assumed; for MIC Pseudomonas aeruginosa S-4: clinical isolate S-4, Heart infusion agar pH 7.4, unit assumed
Method: as §1
MIC was determined in the same manner as in the preceding paragraph (1).

[6] = Acute toxicity LD50 i.v. in mouse; conditions: in vivo, iv; i.v. in mouse having a weight of 19 ± 1 g.
Excerpt: The present penicillins have generally low toxicity.

| Structure (SMILES) | MIC Escherchia coli NIHJ (Escherchia coli NIHJ) [µg/mL] | MIC Klebsiella pneumoniae (Klebsiella pneumoniae) [µg/mL] | MIC Proteus vulgaris 3027 (Proteus vulgaris 3027) [µg/mL] | MIC Pseudomonas aeruginosa I.F.O. [1] [µg/mL] | MIC Staphylococcus aureus 209P [2] [µg/mL] | Relative activity (%) Escherchia coli 33 [3] [%] | Relative activity (%) Pseudomonas aeruginosa GN238 [4] [%] | further results |
| --- | --- | --- | --- | --- | --- | --- | --- | --- |
| CC1(C)S[C@@H]2[C@H](NC(=O)[C@H](NC(=O)NC(=O)c3ccc(C(=O)NC(=O)N[C@@H](C(=O)N[C@@H]4C(=O)N5[C@@H]4SC(C)(C)[C@@H]5C(=O)O)c4ccccc4)cc3)c3ccccc3)C(=O)N2[C@H]1C(=O)O [Compound No. 1] | 3.13 (≈ 3.42 µM) | 25 (≈ 27.3 µM) | 25 (≈ 27.3 µM) | 12.5 (≈ 13.7 µM) | < 1.57 | 12 | 18 | – |
| CC1(C)S[C@@H]2[C@H](NC(=O)[C@H](NC(=O)NC(=O)CCC(=O)NC(=O)N[C@@H](C(=O)N[C@@H]3C(=O)N4[C@@H]3SC(C)(C)[C@@H]4C(=O)O)c3ccccc3)c3ccccc3)C(=O)N2[C@H]1C(=O)O [Compound No. 3, N,N'-succinyl-bis[6-(D(-)-α-ureidophenylacetamido)penicillanic acid]] | 12.5 (≈ 14.4 µM) | 100 (≈ 115 µM) | 12.5 (≈ 14.4 µM) | 25 (≈ 28.8 µM) | < 1.57 | 3 | 5 | MIC Pseudomonas aeruginosa GN 82 [5]: 12.5 µg/mL (≈ 14.4 µM); MIC Pseudomonas aeruginosa GN 163 [5]: 25 µg/mL (≈ 28.8 µM); MIC Pseudomonas aeruginosa GN 221 [5]: 25 µg/mL (≈ 28.8 µM); MIC Pseudomonas aeruginosa GN 264 [5]: 50 µg/mL (≈ 57.7 µM); MIC Pseudomonas aeruginosa GN 376 [5]: 25 µg/mL (≈ 28.8 µM); MIC Pseudomonas aeruginosa GN 383 [5]: 50 µg/mL (≈ 57.7 µM); MIC Pseudomonas aeruginosa GN 1035 [5]: 50 µg/mL (≈ 57.7 µM); MIC Pseudomonas aeruginosa GN 1091 [5]: 25 µg/mL (≈ 28.8 µM); MIC Pseudomonas aeruginosa GN 2565 [5]: 25 µg/mL (≈ 28.8 µM); MIC Pseudomonas aeruginosa GN 2987 [5]: 25 µg/mL (≈ 28.8 µM); MIC Pseudomonas aeruginosa S-2 [5]: 25 µg/mL (≈ 28.8 µM); MIC Pseudomonas aeruginosa S-3 [5]: 25 µg/mL (≈ 28.8 µM); MIC Pseudomonas aeruginosa S-4 [5]: 25 µg/mL (≈ 28.8 µM); LD50 [6]: > 3000 mg/kg |
| CC1(C)S[C@@H]2[C@H](NC(=O)[C@H](NC(=O)NC(=O)CCCCCCCCC(=O)NC(=O)N[C@@H](C(=O)N[C@@H]3C(=O)N4[C@@H]3SC(C)(C)[C@@H]4C(=O)O)c3ccccc3)c3ccccc3)C(=O)N2[C@H]1C(=O)O [Compound No. 4, N,N'-sebacoyl-bis[6-(D(-)-α-ureidophenylacetamido)penicillanic acid]] | 3.13 (≈ 3.29 µM) | 25 (≈ 26.3 µM) | 25 (≈ 26.3 µM) | 50 (≈ 52.6 µM) | < 1.57 | 8 | 12 | – |
| CC1(C)S[C@@H]2[C@H](NC(=O)[C@H](NC(=O)NC(=O)CCCCCCCCCCCC(=O)NC(=O)N[C@@H](C(=O)N[C@@H]3C(=O)N4[C@@H]3SC(C)(C)[C@@H]4C(=O)O)c3ccccc3)c3ccccc3)C(=O)N2[C@H]1C(=O)O [Compound No. 6, N,n'-tridecanedioyl-bis[6-(D(-)-α-ureidophenylacetamido)penicillanic acid]] | 3.13 (≈ 3.15 µM) | 12.5 (≈ 12.6 µM) | 25 (≈ 25.2 µM) | 25 (≈ 25.2 µM) | < 1.57 | < 1 | < 1 | – |
| CC1(C)S[C@@H]2[C@H](NC(=O)Cc3ccccc3)C(=O)N2[C@H]1C(=O)O [Potassium Penicillin G, reference compound] | – | – | – | – | – | 100 | 100 | – |
| CC1(C)S[C@@H]2[C@H](NC(=O)[C@H](N)c3ccccc3)C(=O)N2[C@H]1C(=O)O [Sodium Ampicillin, reference compound] | < 1.57 | 50 | > 200 | > 200 | < 1.57 | – | – | MIC Pseudomonas aeruginosa GN 82 [5]: > 200 µg/mL; MIC Pseudomonas aeruginosa GN 163 [5]: > 200 µg/mL; MIC Pseudomonas aeruginosa GN 221 [5]: > 200 µg/mL; MIC Pseudomonas aeruginosa GN 264 [5]: > 200 µg/mL; MIC Pseudomonas aeruginosa GN 376 [5]: > 200 µg/mL; MIC Pseudomonas aeruginosa GN 383 [5]: > 200 µg/mL; MIC Pseudomonas aeruginosa GN 1035 [5]: > 200 µg/mL; MIC Pseudomonas aeruginosa GN 1091 [5]: > 200 µg/mL; MIC Pseudomonas aeruginosa GN 2565 [5]: > 200 µg/mL; MIC Pseudomonas aeruginosa GN 2987 [5]: > 200 µg/mL; MIC Pseudomonas aeruginosa S-2 [5]: > 200 µg/mL; MIC Pseudomonas aeruginosa S-3 [5]: > 200 µg/mL; MIC Pseudomonas aeruginosa S-4 [5]: > 200 µg/mL |
| CC1(C)S[C@@H]2[C@H](NC(=O)[C@H](NC(=O)NC(=O)c3ccc4cc(C(=O)NC(=O)N[C@@H](C(=O)N[C@@H]5C(=O)N6[C@@H]5SC(C)(C)[C@@H]6C(=O)O)c5ccccc5)ccc4c3)c3ccccc3)C(=O)N2[C@H]1C(=O)O [compound 2] | < 1.57 | 3.13 (≈ 3.24 µM) | 3.15 (≈ 3.26 µM) | 25 (≈ 25.9 µM) | < 1.57 | – | – | – |
| CC1(C)S[C@@H]2[C@H](NC(=O)[C@H](NC(=O)NC(=O)CCCCCCCCCCC(=O)NC(=O)N[C@@H](C(=O)N[C@@H]3C(=O)N4[C@@H]3SC(C)(C)[C@@H]4C(=O)O)c3ccccc3)c3ccccc3)C(=O)N2[C@H]1C(=O)O [compound 5, N,n'-dodecanedioyl-bis[6-(D(-)-α-ureidophenylacetamido)penicillanic acid]] | 3.13 (≈ 3.2 µM) | 12.5 (≈ 12.8 µM) | 100 (≈ 102 µM) | 50 (≈ 51.1 µM) | < 1.57 | – | – | – |
| CC1(C)S[C@@H]2[C@H](NC(=O)[C@H](NC(=O)NC(=O)COc3ccc(OCC(=O)NC(=O)N[C@@H](C(=O)N[C@@H]4C(=O)N5[C@@H]4SC(C)(C)[C@@H]5C(=O)O)c4ccccc4)cc3)c3ccccc3)C(=O)N2[C@H]1C(=O)O [compound 7] | 6.25 (≈ 6.41 µM) | 25 (≈ 25.6 µM) | 12.5 (≈ 12.8 µM) | 25 (≈ 25.6 µM) | < 1.57 | – | – | – |
| CC1(C)S[C@@H]2[C@H](NC(=O)[C@H](NC(=O)NC(=O)c3ccc(CCc4ccc(C(=O)NC(=O)N[C@@H](C(=O)N[C@@H]5C(=O)N6[C@@H]5SC(C)(C)[C@@H]6C(=O)O)c5ccccc5)cc4)cc3)c3ccccc3)C(=O)N2[C@H]1C(=O)O [compound 8] | < 1.57 | 6.25 (≈ 6.13 µM) | 6.25 (≈ 6.13 µM) | 50 (≈ 49.1 µM) | < 1.57 | – | – | – |
| CC1(C)S[C@@H]2[C@H](NC(=O)[C@H](NC(=O)NC(=O)c3ccc(C(=O)c4ccc(C(=O)NC(=O)N[C@@H](C(=O)N[C@@H]5C(=O)N6[C@@H]5SC(C)(C)[C@@H]6C(=O)O)c5ccccc5)cc4)cc3)c3ccccc3)C(=O)N2[C@H]1C(=O)O [compound 9] | 3.13 (≈ 3.07 µM) | 12.5 (≈ 12.3 µM) | 12.5 (≈ 12.3 µM) | 25 (≈ 24.5 µM) | < 1.57 | – | – | – |
